What is called DC50 is the concentration giving 50% degradation. A higher DC50 goes with degradation only at high concentration. The IC50 is the concentration that gives 50% inhibition. A low value points to greater potency in that assay. What is called Dmax is the largest share of the target that was removed. Higher therefore signals deep degradation.

19 compounds from patent US20250195484A1, “CEREBLON LIGANDS AND USES THEREOF” (priority 2022, published 2025) can be followed below.

T2 sequence (Q09472 whole entry): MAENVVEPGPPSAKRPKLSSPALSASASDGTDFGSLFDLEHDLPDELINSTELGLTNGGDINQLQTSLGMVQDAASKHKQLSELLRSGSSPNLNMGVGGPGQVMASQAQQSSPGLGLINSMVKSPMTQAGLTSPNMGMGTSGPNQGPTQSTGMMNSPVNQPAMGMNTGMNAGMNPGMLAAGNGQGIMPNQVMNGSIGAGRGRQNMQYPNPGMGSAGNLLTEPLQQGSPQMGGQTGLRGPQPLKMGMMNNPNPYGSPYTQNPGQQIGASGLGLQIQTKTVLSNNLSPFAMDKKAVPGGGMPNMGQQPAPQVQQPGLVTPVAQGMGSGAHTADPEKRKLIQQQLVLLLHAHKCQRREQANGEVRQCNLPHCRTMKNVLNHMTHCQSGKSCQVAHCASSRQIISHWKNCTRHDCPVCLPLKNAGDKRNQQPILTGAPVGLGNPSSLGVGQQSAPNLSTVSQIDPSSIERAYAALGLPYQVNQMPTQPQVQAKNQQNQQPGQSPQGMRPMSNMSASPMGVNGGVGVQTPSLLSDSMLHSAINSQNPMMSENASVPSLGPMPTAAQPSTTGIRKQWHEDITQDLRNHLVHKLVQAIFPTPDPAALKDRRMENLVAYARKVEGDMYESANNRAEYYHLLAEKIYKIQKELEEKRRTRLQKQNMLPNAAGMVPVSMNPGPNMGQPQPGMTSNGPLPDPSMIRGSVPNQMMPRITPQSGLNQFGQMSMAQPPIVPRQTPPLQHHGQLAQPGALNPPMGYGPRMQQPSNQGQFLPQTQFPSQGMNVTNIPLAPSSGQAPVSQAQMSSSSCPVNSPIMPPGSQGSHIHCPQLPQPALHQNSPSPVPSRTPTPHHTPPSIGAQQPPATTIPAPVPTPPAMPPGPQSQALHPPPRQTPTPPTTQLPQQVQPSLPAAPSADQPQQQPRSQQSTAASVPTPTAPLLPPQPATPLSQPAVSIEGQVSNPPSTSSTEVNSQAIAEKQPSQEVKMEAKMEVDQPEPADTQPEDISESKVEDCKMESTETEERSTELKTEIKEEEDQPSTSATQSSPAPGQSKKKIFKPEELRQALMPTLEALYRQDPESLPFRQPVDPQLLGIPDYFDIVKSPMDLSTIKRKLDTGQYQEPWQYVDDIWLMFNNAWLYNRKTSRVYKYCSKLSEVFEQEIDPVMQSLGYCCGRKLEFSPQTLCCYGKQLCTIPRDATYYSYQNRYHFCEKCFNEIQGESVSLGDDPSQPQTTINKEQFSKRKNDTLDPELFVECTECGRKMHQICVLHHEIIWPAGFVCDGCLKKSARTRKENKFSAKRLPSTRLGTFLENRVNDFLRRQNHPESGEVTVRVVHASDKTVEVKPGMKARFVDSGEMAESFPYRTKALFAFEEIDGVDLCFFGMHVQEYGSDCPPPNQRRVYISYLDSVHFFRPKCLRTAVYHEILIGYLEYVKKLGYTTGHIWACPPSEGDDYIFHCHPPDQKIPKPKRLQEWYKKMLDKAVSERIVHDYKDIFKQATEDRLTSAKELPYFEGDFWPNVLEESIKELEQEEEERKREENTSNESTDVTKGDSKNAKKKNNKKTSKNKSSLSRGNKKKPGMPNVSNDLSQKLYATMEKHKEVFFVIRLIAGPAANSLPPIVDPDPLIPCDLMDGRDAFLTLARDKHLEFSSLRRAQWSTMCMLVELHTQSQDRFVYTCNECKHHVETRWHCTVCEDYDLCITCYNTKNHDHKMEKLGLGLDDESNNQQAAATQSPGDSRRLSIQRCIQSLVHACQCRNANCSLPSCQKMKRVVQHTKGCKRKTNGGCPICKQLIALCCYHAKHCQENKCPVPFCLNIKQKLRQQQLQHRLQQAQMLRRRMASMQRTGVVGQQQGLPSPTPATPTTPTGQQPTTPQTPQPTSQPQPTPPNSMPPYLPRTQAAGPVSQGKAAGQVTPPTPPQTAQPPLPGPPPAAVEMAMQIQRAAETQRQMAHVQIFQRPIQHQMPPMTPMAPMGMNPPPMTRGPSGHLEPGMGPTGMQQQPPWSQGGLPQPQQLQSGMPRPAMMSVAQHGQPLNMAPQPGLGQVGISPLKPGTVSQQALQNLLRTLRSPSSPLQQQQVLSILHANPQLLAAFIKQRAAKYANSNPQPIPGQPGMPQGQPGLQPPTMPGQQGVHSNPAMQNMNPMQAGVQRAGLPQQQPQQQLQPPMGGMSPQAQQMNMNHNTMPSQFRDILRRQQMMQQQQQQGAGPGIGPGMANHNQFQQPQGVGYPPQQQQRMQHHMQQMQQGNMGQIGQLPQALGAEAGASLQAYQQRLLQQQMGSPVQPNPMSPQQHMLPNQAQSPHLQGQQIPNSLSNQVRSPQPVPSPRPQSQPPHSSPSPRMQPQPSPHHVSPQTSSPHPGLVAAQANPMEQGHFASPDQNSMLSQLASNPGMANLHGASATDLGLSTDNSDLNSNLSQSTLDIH

The first assay deals with T1, CBP (Homo sapiens, UniProt Q92793).
T1 construct: endogenous in cells; host or cells: 22Rv1
T1 sequence (Q92793 whole entry): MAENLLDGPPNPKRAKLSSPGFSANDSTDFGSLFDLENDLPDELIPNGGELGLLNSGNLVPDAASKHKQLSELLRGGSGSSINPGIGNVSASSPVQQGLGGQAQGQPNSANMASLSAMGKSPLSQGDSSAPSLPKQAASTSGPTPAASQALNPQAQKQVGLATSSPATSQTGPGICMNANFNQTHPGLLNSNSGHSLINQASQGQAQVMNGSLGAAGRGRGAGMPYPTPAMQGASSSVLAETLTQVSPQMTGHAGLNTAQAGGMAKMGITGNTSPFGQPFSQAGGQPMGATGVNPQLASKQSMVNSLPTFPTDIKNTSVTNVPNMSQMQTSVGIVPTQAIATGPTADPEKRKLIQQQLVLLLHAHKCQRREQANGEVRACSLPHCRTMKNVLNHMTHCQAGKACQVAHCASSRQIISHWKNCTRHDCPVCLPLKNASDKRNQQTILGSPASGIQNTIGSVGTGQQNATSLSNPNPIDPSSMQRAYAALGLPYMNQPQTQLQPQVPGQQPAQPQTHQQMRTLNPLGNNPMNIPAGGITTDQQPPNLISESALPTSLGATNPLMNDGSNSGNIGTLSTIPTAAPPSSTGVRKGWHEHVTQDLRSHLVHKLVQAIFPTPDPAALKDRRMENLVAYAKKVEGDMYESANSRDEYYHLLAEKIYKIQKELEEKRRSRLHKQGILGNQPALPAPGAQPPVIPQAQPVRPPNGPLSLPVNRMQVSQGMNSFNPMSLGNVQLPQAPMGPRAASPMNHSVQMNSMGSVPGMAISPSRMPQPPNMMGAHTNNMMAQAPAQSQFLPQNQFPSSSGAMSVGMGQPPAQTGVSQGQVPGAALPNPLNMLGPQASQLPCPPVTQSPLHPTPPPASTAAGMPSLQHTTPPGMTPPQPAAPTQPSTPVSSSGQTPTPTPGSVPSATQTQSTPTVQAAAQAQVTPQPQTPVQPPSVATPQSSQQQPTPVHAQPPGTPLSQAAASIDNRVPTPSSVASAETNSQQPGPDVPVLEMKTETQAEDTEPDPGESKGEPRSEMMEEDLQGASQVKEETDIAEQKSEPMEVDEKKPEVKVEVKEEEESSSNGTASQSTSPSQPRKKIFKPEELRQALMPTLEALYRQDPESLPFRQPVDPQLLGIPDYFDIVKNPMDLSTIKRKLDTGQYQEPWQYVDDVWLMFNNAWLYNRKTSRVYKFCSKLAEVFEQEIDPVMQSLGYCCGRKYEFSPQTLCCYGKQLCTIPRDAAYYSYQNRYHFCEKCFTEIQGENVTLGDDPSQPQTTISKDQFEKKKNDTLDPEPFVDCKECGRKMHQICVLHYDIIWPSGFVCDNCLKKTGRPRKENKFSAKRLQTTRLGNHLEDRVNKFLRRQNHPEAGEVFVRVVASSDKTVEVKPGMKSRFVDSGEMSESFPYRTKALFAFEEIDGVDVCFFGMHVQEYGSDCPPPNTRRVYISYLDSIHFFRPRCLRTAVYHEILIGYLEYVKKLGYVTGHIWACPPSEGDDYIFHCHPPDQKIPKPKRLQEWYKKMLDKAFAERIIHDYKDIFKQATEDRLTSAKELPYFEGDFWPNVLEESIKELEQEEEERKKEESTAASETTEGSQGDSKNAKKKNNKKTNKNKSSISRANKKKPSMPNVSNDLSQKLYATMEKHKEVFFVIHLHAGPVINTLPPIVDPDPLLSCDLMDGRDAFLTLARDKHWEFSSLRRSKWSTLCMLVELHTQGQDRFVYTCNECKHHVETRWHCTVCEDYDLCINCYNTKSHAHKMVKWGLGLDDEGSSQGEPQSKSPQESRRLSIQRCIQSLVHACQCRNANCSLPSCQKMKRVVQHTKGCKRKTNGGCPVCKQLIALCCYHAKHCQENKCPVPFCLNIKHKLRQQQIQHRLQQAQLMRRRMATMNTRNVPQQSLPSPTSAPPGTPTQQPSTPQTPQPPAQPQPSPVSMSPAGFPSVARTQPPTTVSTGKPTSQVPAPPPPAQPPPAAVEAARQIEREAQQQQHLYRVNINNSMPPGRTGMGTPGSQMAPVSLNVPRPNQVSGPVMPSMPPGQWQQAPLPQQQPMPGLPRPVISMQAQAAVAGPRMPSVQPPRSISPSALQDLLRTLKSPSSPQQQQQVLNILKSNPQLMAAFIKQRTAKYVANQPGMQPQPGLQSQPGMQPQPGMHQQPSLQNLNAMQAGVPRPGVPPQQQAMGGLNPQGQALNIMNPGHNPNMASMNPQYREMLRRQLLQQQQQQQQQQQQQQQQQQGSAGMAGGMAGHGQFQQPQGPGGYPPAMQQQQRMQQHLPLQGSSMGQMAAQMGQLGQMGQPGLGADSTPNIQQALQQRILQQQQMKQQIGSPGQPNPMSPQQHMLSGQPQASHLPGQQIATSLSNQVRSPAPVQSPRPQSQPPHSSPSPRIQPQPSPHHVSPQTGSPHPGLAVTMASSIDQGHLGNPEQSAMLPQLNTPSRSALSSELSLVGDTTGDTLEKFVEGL
The experiment in a line: CBP degradation, western blot, 22Rv1. Type of assay: cell-based. Conditions: 22Rv1, 5 h. As to the method:
(§1) WesternT Blot Analysis. Western blot analysis was performed essentially as described previously. The cells treated with indicated compounds were lysed in Radioimmunoprecipitation Assay Protein Lysis and Extraction Buffer (25 mmol/L Tris.HCl, pH 7.6, 150 mmol/L NaCl, 1% Nonidet P-40, 1% sodium deoxycholate, and 0.1% sodium dodecyl sulfate) containing proteinase inhibitor cocktail (Roche Diagnostics, Mannheim, Germany). Equal amounts of total protein were electrophoresed through 10% SDS-polyacrylamide gels after determination of protein concentration by BCA assay (Fisher Scientific, Pittsburgh, PA). The separated protein bands were transferred onto PVDF membranes (GE Healthcare Life Sciences, Marlborough, MA) and blotted against different antibodies, as indicated. The blots were scanned, and the band intensities were quantified using GelQuant.NET software provided by biochemlabsolutions.com. The relative mean intensity of target proteins was expressed after normalization to the intensity of glyceraldehyde-3-phosphate dehydrogenase bands.
On the technique in general: A western blot detects proteins with antibodies after separation by electrophoresis.
Consider `CC(=O)N1CCc2c(c(N3CCCc4cc(-c5cnn(C)c5)c(C(F)F)cc43)nn2C2CCN(C(=O)CN3CCC4(CC3)COc3c4ccc4c3CN([C@H]3CCC(=O)NC3=O)C4=O)CC2)C1` [CPD-002, (S)-3-(1′-(2-(4-(5-acetyl-3-(7-(difluoromethyl)-6-(1-methyl-1H-pyrazol-4-yl)-3,4-dihydroquinolin-1(2H)-yl)-4,5,6,7-tetrahydro-1H-pyrazolo[4,3-c]pyridin-1-yl)piperidin-1-yl)-2-oxoethyl)-6-oxo-6,8-dihydro-2H,7H-spiro[furo[2,3-e]isoindole-3,4′-piperidin]-7-yl)piperidine-2,6-dione], for which the “CBP Degradation DCmax” value was “A (A (≥90%))” and the DC50 was under 0.0001 µM.
On to `CC(=O)N1CCc2c(c(N3CCCc4cc(-c5cnn(C)c5)c(C(F)F)cc43)nn2C2CCN(CC(=O)N3CCC4(CC3)COc3c4ccc4c3CN([C@H]3CCC(=O)NC3=O)C4=O)CC2)C1` [CPD-001, (S)-3-(1′-(2-(4-(5-acetyl-3-(7-(difluoromethyl)-6-(1-methyl-1H-pyrazol-4-yl)-3,4-dihydroquinolin-1(2H)-yl)-4,5,6,7-tetrahydro-1H-pyrazolo[4,3-c]pyridin-1-yl)piperidin-1-yl)acetyl)-6-oxo-6,8-dihydro-2H,7H-spiro[furo[2,3-e]isoindole-3,4′-piperidin]-7-yl)piperidine-2,6-dione], for which the “CBP Degradation DCmax” value was “A (A (≥90%))” and the DC50 is under 0.0001 µM.

Another assay deals with CRBN/DDB1 (Homo sapiens, UniProt Q96SW2). The experiment in a line: biochemical.
Settings: not given
Regarding `CN1CCC2(CC1)COc1cc3c(cc12)CN(C1CCC(=O)NC1=O)C3=O` (centres unmarked) [Compound A4, 3-(1′-methyl-7-oxo-5,7-dihydro-2H,6H-spiro[furo[2,3-f]isoindole-3,4′-piperidin]-6-yl)piperidine-2,6-dione], the IC50 amounted to 0.096 µM.
The compound `O=C1CC[C@H](N2Cc3c4c(cc(Cl)c3C2=O)C2(CCNCC2)CO4)C(=O)N1` [Compound A20, (S)-3-(5-chloro-6-oxo-6,8-dihydro-2H,7H-spiro[furo[2,3-e]isoindole-3,4′-piperidin]-7-yl)piperidine-2,6-dione] showed a concentration for half-maximal inhibition (IC50) of 0.038 µM.
Take `O=C1CCC(N2Cc3cc4c(cc3C2=O)OCC42CCNCC2)C(=O)N1` (centres unmarked) [Compound A1, 3-(7-oxo-5,7-dihydro-2H,6H-spiro[furo[2,3-f]isoindole-3,4′-piperidin]-6-yl)piperidine-2,6-dione]: half-maximal inhibition (IC50) was put at 0.94 µM.
For `COc1cc2c(c3c1C(=O)N([C@H]1CCC(=O)NC1=O)C3)OCC21CCNCC1` [Compound A21, (S)-3-(5-methoxy-6-oxo-6,8-dihydro-2H,7H-spiro[furo[2,3-e]isoindole-3,4′-piperidin]-7-yl)piperidine-2,6-dione], the midpoint of inhibition, the IC50, lay at 0.17 µM.
`CC(C)(C)OC(=O)N1CCC2(CC1)COc1cc3c(cc12)CN(C1CCC(=O)NC1=O)C3=O` (centres unmarked) [Compound A14, tert-butyl 6-(2,6-dioxopiperidin-3-yl)-7-oxo-6,7-dihydro-2H,5H-spiro[furo[2,3-f]isoindole-3,4′-piperidine]-1′-carboxylate] came in with an IC50 of 0.29 µM.
In turn, `CC(=O)N1CCC2(CC1)COc1cc3c(cc12)CN(C1CCC(=O)NC1=O)C3=O` (centres unmarked) [Compound A5, 3-(1′-acetyl-7-oxo-5,7-dihydro-2H,6H-spiro[furo[2,3-f]isoindole-3,4′-piperidin]-6-yl)piperidine-2,6-dione] registered an IC50 of 3.8 µM.
For the compound `O=C1CCC(N2Cc3c(ccc4c3OCC43CCCNCC3)C2=O)C(=O)N1` (centres unmarked) [Compound A8, 3-(6′-oxo-6′,8′-dihydro-2′H,7′H-spiro[azepane-4,3′-furo[2,3-e]isoindol]-7′-yl)piperidine-2,6-dione], the IC50 was 0.75 µM.
`CC(=O)N1CCC2(CC1)OCCc1cc3c(cc12)CN(C1CCC(=O)NC1=O)C3=O` (centres unmarked) [Compound A7, 3-(1-acetyl-1′-oxo-1′,3′,7′,8′-tetrahydro-2′H-spiro[piperidine-4,5′-pyrano[3,4-f]isoindol]-2′-yl)piperidine-2,6-dione] came in with an IC50 of 3 µM. This IC50 lies about 4-fold higher than the previous one.
Same read-out and setting: the result for `O=C1CC[C@H](NC(=O)c2ccc3c(n2)OCC32CCNCC2)C(=O)N1` [Compound A18, (S)-N-(2,6-dioxopiperidin-3-yl)-2H-spiro[furo[2,3-b]pyridine-3,4′-piperidine]-6-carboxamide] reads over 10000 µM.
Compound `O=C1CCC(N2Cc3c(ccc4c3OCC43CCNC3)C2=O)C(=O)N1` (centres unmarked) [Compound A9, 3-(6-oxo-6,8-dihydro-2H,7H-spiro[furo[2,3-e]isoindole-3,3′-pyrrolidin]-7-yl)piperidine-2,6-dione] returned an IC50 of 0.21 µM.
The same measure, in the same setting: the same measure for `O=C1CCC(N2Cc3c(ccc4c3OCC43CCNCC3(F)F)C2=O)C(=O)N1` (centres unmarked) [Compound A17, 3-(3′,3′-difluoro-6-oxo-6,8-dihydro-2H,7H-spiro[furo[2,3-e]isoindole-3,4′-piperidin]-7-yl)piperidine-2,6-dione]: 0.23 µM; for `Cc1cc2c(c3c1C(=O)N([C@H]1CCC(=O)NC1=O)C3)OCC21CCNCC1` [Compound A19, (S)-3-(5-methyl-6-oxo-6,8-dihydro-2H,7H-spiro[furo[2,3-e]isoindole-3,4′-piperidin]-7-yl)piperidine-2,6-dione]: 0.18 µM; for `COc1cc2c(c3c1C(=O)N([C@@H]1CCC(=O)NC1=O)C3)OCC21CCNCC1` [Compound A22, (R)-3-(5-methoxy-6-oxo-6,8-dihydro-2H,7H-spiro[furo[2,3-e]isoindole-3,4′-piperidin]-7-yl)piperidine-2,6-dione]: 3.9 µM.
On the same count and under the same terms, the result for `CN1CCC2(CC1)OCCc1cc3c(cc12)CN(C1CCC(=O)NC1=O)C3=O` (centres unmarked) [Compound A6, 3-(1-methyl-1′-oxo-1′,3′,7′,8′-tetrahydro-2′H-spiro[piperidine-4,5′-pyrano[3,4-f]isoindol]-2′-yl)piperidine-2,6-dione] reads 2.2 µM; that for `O=C1CC[C@H](N2Cc3c(ccc4c3OCC43CCNCC3)C2=O)C(=O)N1` [Compound A15, (S)-3-(6-oxo-6,8-dihydro-2H,7H-spiro[furo[2,3-e]isoindole-3,4′-piperidin]-7-yl)piperidine-2,6-dione], 0.055 µM.
`O=C1CCC(N2Cc3cc4c(cc3C2=O)CCOC42CCNCC2)C(=O)N1` (centres unmarked) [Compound A3, 3-(1′-oxo-1′,3′,7′,8′-tetrahydro-2′H-spiro[piperidine-4,5′-pyrano[3,4-f]isoindol]-2′-yl)piperidine-2,6-dione] showed an IC50 of 0.27 µM.

The next assay has as its target T2, P300 (Homo sapiens, UniProt Q09472).
T2 construct: endogenous in cells; host or cells: 22Rv1
Nature of the assay: P300 degradation, western blot, 22Rv1. Conditions: 22Rv1, 5 h. Type of assay: cell-based. As to the method: as §1
For the compound `CC(=O)N1CCc2c(c(N3CCCc4cc(-c5cnn(C)c5)c(C(F)F)cc43)nn2C2CCN(C(=O)CN3CCC4(CC3)COc3c4ccc4c3CN([C@H]3CCC(=O)NC3=O)C4=O)CC2)C1` [CPD-002, (S)-3-(1′-(2-(4-(5-acetyl-3-(7-(difluoromethyl)-6-(1-methyl-1H-pyrazol-4-yl)-3,4-dihydroquinolin-1(2H)-yl)-4,5,6,7-tetrahydro-1H-pyrazolo[4,3-c]pyridin-1-yl)piperidin-1-yl)-2-oxoethyl)-6-oxo-6,8-dihydro-2H,7H-spiro[furo[2,3-e]isoindole-3,4′-piperidin]-7-yl)piperidine-2,6-dione], the DC50 is under 0.0001 µM and the “P300 Degradation DCmax” value is given as “A (A (≥90%))”.
The like results for `CC(=O)N1CCc2c(c(N3CCCc4cc(-c5cnn(C)c5)c(C(F)F)cc43)nn2C2CCN(CC(=O)N3CCC4(CC3)COc3c4ccc4c3CN([C@H]3CCC(=O)NC3=O)C4=O)CC2)C1` [CPD-001, (S)-3-(1′-(2-(4-(5-acetyl-3-(7-(difluoromethyl)-6-(1-methyl-1H-pyrazol-4-yl)-3,4-dihydroquinolin-1(2H)-yl)-4,5,6,7-tetrahydro-1H-pyrazolo[4,3-c]pyridin-1-yl)piperidin-1-yl)acetyl)-6-oxo-6,8-dihydro-2H,7H-spiro[furo[2,3-e]isoindole-3,4′-piperidin]-7-yl)piperidine-2,6-dione] were, in that order, 0.0001 to 0.001 µM and “A (A (≥90%))”.

The next assay concerns the target T3, STAT3 (Homo sapiens, UniProt P40763).
T3 construct: host or cells: HeLa (STAT3-HiBiT CRISPR knock-in clone)
The experiment in a line: STAT3 degradation HiBiT assay (STAT3-HIBIT KI HeLa). Conditions: STAT3-HIBIT KI HeLa cells, 24 hours. Type of assay: cell-based. As to the method:
STAT3-HIBIT KI HeLa cell line was purchased from Promega. This cell line is a clone created by using CRISPR-Cas9 to fuse HiBIT to the 3′ end of STAT3 in HeLa cells. DMEM medium and FBS were purchased from Gibco/Thermo Fisher Scientific. STAT3 degradation was determined based on quantification of luminescent signal using Nano-Glo HiBIT Lytic Detection System. In a typical procedure, cells seeded at 20000 cells per well in 96-well white plates (Corning) were incubated with serially diluted compounds for 24 hours at 37° C. with 5% CO2. At the end of treatment, Nano-Glo HiBIT Lytic Detection reagents was added to the wells and luminescence was acquired on TECAN PSARK plate reader. Untreated cells were used as control. Data points were fit with a four-parameter equation to generate a concentration-response curve. IC50 values were calculated using a nonlinear regression analysis of the mean±SD from triplicate.
On the technique in general: The HiBiT peptide binds its large partner to form an active luciferase.
`NC(=O)CC[C@H](NC(=O)[C@@H]1CC[C@@H]2CCN(C(=O)CCCCC(=O)N3CCC4(CC3)COc3c4ccc4c3CN([C@H]3CCC(=O)NC3=O)C4=O)C[C@H](NC(=O)c3cc4cc(C(F)(F)P(=O)(O)O)ccc4s3)C(=O)N21)C(=O)NC(c1ccccc1)c1ccccc1` [STD 22, ((2-(((5S,8S,10aR)-8-(((S)-5-amino-1-(benzhydrylamino)-1,5-dioxopentan-2-yl)carbamoyl)-3-(6-(7-((S)-2,6-dioxopiperidin-3-yl)-6-oxo-7,8-dihydro-2H,6H-spiro[furo[2,3-e]isoindole-3,4′-piperidin]-1′-yl)-6-oxohexanoyl)-6-oxodecahydropyrrolo[1,2-a][1,5]diazocin-5-yl)carbamoyl)benzo[b]thiophen-5-yl)difluoromethyl)phosphonic acid] gave a DC50 of 1 to 10 µM and a Dmax of under 40%.
